Drawing on ChEMBL document CHEMBL1131818, “Novel quinolinequinone antitumor agents: structure-metabolism studies with NAD(P)H:quinone oxidoreductase (NQO1)” (Bioorg Med Chem Lett, 1999), this text covers NADH oxidation for 14 compounds.

This data set can be described thus: Metabolism by recombinant human NAD(P)H:quinone oxidoreductase (NQO1) was evaluated. It counts as ADME.

Each structure is given as a SMILES string.

For the compound `COC1=CC(=O)c2nc(-c3ccc(-c4ccccc4)cc3)ccc2C1=O`, the NADH oxidation stood at 4.75 µM/min/mg. Next, `COC1=CC(=O)c2ncccc2C1=O`: 58.7 µM/min/mg. As for `COC1=CC(=O)c2nc(-c3cccs3)ccc2C1=O`, the NADH oxidation turned out to be 32.1 µM/min/mg. The same measure for `COC1=CC(=O)c2nc(-c3cc4ccccc4o3)ccc2C1=O`: 33.3 µM/min/mg; for `COC1=CC(=O)c2nc(-c3cccc4ccccc34)ccc2C1=O`: 25.1 µM/min/mg. Next, `COC1=CC(=O)c2c(cc(C)n2C)C1=O`: 5.31 µM/min/mg; `COC1=C(N)C(=O)c2nc(-c3nc(C(=O)O)c(C)c(-c4ccc(OC)c(OC)c4O)c3N)ccc2C1=O` [STREPTONIGRIN]: 47.4 µM/min/mg; `COC1=CC(=O)c2nc(-c3ccccc3)ccc2C1=O`: 28.8 µM/min/mg. `O=C1C(N2CCCC2)=CC(=O)c2ncccc21`: the NADH oxidation was 26.2 µM/min/mg. As to `COC1=CC(=O)c2nc(-c3ccc(C)cc3)ccc2C1=O`, the NADH oxidation is 19.2 µM/min/mg. The same measure for `COC1=CC(=O)c2nc(-c3ccc(C)cn3)ccc2C1=O`: 45.7 µM/min/mg; for `COC1=CC(=O)c2nc(Cl)ccc2C1=O`: 100 µM/min/mg; for `COC1=CC(=O)c2nc(-c3ccc4ccccc4c3)ccc2C1=O`: 14 µM/min/mg. Turning to `COC1=CC(=O)c2nc(-c3ccccn3)ccc2C1=O`, the NADH oxidation stood at 50.5 µM/min/mg.
